Results from patent US7199156B2, “Composition and method to treat solid tumors” (priority 2003, dated 2007).
“Also recorded” adds a separate entry of the source. Marks after values point to notes of the source that are not given here.

Experiments:
[1] = system: malignant mammary adenocarcinoma, code 13762 NM; assay: Single injection of lipophilic lathyrogen/polymeric carrier into mammary carcinoma (Example V); assay type: in vivo, rats; conditions: single intratumoral injection on day 10, in polymeric carrier with unmodified DPA or BAPN
Experimental: In this Example V, Applicant prepared a formulation comprising methylester-DPA.HCl, i.e. Compound II wherein R1 is methyl and wherein R2 is hydrogen, and wherein X is chloride, or Hexyl(amino)-propionitrile, i.e. Compound IV, wherein R4 is hexyl, dispersed in a liquid polymeric carrier.
Applicant dispersed 1 gram of either methylester-DPA.HCl, or hexyl(amino) propionitrile, in combination with about 100 mg of the unmodified DPA or BAPN, respectively, in about 1 ml of the liquid polymer. After thorough mixing, 1 ml volume syringes were filled with Applicant's formulation. All preparations were performed at about 4° C., over crushed ice, and the syringes and needles used were refrigerated prior to loading. The loaded syringes were kept in a refrigerated vessel until used.
The rat model of solid tumor was described by Miller et al. (Proc Nat'l Acad Sci 90,3304,1993). Fischer 344 (F344) inbred female rats were used. The initial body weight was 100 grams, plus or minus about 7 grams. The right flank area was clipped, and the rats were tattooed for identification in the ear. […]
There were 6 rats per group. […] Once the implanted tumor was detectable, the size of that tumor was measured by caliper in two perpendicular directions.
The growth of each tumor was determined every second day. […]

[2] = system: breast adenocarcinome; assay: Single injection into mammary carcinoma, breast adenocarcinome model (Example VI); assay type: in vivo, rats; conditions: single intratumoral injection; FIG. 3
Experimental: In this Example VI, Applicant studied the effect of various treatments on the tumor growth, survival rate, morphology, and metastases in Fisher rats of breast adenocarcinome model.
The method of Example V was used to prepare and inject tumor chunks into the test animals. In Example VI, Applicant used 5 groups of animals with 8 rats per group.
The preparation of the treatment modalities was as follows: • Group 1. Control • Group 2. Polymer Carrier only; used 1.5 ml polymer+1 ml water (polymer used: 38% PLGA-c-PEG in saline) • Group 3. 2 grams Polymeric Carrier+1.038 grams Hexyl ester DPA.HCl+200 mg DPA • Group 4. 800 mg Hexyl ester DPA.HCl+200 mg DPA+2 ml water • Group 5. 1.5 grams Polymeric Carrier+1.5 grams Hexyl (amino)propionitrile+200 mg BAPN Once mixed, all materials were kept on ice until injection time. The various formulations were injected into the tumor using a 23 gauge needle. The retains of Groups 2, 3, and 5, remained pourable after 2–3 hours at 82° F.

[3] = Rate of release of lathyrogen from polymeric carrier HYPA(N-30) into saline; assay type: physicochemical; conditions: for Percent Released: from HYPA(N-30) carrier into saline, 37° C.
Experimental: Applicant compared the rate of release from a polymeric carrier of unmodified […] hydrophilic lathyrogen, and a lipophilic D-penicillamine adduct formed by reacting DPA with hexanaldehyde using a published synthetic procedure. Both lathyrogens were dispersed in a polyacrylonitrile (“PAN”) polymer sold in commerce by SKY Polymers, Princeton, N.J. under the tradename HYPA(N-30). The HYPA(N-30) was dissolved in 100% DMSO. Water drowning this DMSO/HYPA(N-30)/lipophilic DPA solution, using a syringe with a 16 gauge needle attached, into saline (0.9% NaCl in water W/v) forms a flexible, solid string. The […] was kept at 37° C., and the incubation jar was minimally shaken. At the times recited in Table 1, an aliquot of the incubation medium was collected and the amount of released D-penicillamine was determined using a reaction between ninhydrin and the free amino groups on the released DPA. […] The ninhydrin reaction requires heating the sample at 100° C., thus freeing the amino group. Table 1 recites the results.

[4] = system: B-16 melanoma cells; assay: Repeated injections of DPA into melanoma tumor (Example IV); assay type: in vivo, mice; conditions: for Volume of melanoma tumor: 5 mg DPA in 0.2 ml saline daily, intratumoral, average
Experimental: Female mice, standard inbred C 57/Black, having between about 20 to about 25 g body weight were injected s.c. in the right flank region with 0.1 ml of […] B-16 melanoma cells. These cells are harvested in their end of the log phase growth. These cells come from a tissue culture, using RPMI 1640 medium with 10% FBS enriched with 1-glutamine, penicillin and streptomycin. Cells are harvested by trypsinization, counted, suspended in sterile PBS, and injected in 0.1 ml s.c. in flank region. There were 4 mice per group.
Injection of these melanoma cells resulted within 10 days post injection to a tumor weight of about 1.5 g. Tumor volumes were monitored 3× per week by caliper (MITUYO digital, Smalls Parts Inc., Phoenix, Ariz.) in two perpendicular directions and once per week for body weight. Tumor volume in cubic millimeters is calculated by the formula: (length×(width^2))/2.
Monitoring was continued up to 4 weeks. When the control animals began to die from the tumor burden, the experiment was terminated. Individual animals were terminated once the tumor volume exceeded 20% of mice weight, or when the body weight loss exceeded 20% of the starting body weight.
Table 2 recites the volume, in cubic millimeters, of the melanoma tumor injected daily with 5 mg DPA in 0.2 ml of saline. The treatment was administered once the tumor reached a detectable and measurable size. Average volumes are recited in Table 2. […] There was no effect on body weight or animals behavior.

[5] = known properties; cited from earlier work
[6] = cited from earlier work
[7] = free BAPN; quickly excreted and metabolized; cited from earlier work

Molecule: COC(=O)[C@H](N)C(C)(C)S.Cl [methylester-DPA.HCl, DPA-Methylester Hydrochloride]
- growth of the tumor ([1]; Hydrochloride): even more pronounced inhibition of tumor growth; also recorded: inhibitory effect
- tumor growth [2]: effective

Molecule: D-Pencillamine [DPA]
- time over which released from the polymeric carrier ([3]; FIG. 1): a few hours
- Percent Released ([3]; Time 0.1 hours): 29%
- Percent Released ([3]; Time 2 hours): 89%
- Percent Released ([3]; Time 20 hours): 100%
- effect on body weight or animals behavior ([4]; daily intratumoral 5 mg DPA): no effect
- Volume of melanoma tumor ([4]; day 0 after detectable tumor was injected): 89 cubic millimeters
- Volume of melanoma tumor ([4]; day 2): 174* cubic millimeters
- Volume of melanoma tumor ([4]; day 5): 806* cubic millimeters
- Volume of melanoma tumor ([4]; day 7): 816* cubic millimeters
- Volume of melanoma tumor ([4]; day 9): 486* cubic millimeters
- Toxicity In local administration [5]: none
- Toxicity in systemic administration [5]: yes
- solubility in aqueous media, such as tissue fluid [6]: very soluble

Molecule: N#CCCN [BAPN, beta-aminopropionitrile]
- duration of activity [7]: no more than 24 hours

Molecule: CCCCCCNCCC#N [Hexylamino-propionitrile, Hexyl(amino)-propionitrile]
- growth of the tumor [1]: markedly inhibited; also recorded: inhibitory effect
